Data taken from US20260262643A1, “HERBICIDAL BENZOXAZINES” (FMC CORPORATION, priority 2022, published 2026).

Columns and labels:
[1] = system: pigweed, palmer; test: Test A preemergence; type: in vivo, Amaranthus palmeri; conditions: Amaranthus palmeri, pre-emergence, 240 h, read-out: Plant response rating, Pigweed, Palmer; for pest or weed control at 125 g/ha: 125 g ai/ha, visual injury after 10 days, 0 to 100 scale, 0 is no effect, 100 is complete control; for pest or weed control at 500 g/ha: 500 g ai/ha, 0 to 100 scale (0 no effect, 100 complete control), 10 days
In short: (§1)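 Loam/sand soil; pre-em directed soil spray at planting, post-em spray at 1–2 leaf (2–10 cm). Compound in non-phytotoxic solvent + surfactant. Greenhouse 10 d; visual injury vs untreated, 0 = no effect, 100 = complete control.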

[2] = system: ragweed; test: Test A preemergence; type: in vivo, Ambrosia artemisiifolia; conditions: Ambrosia artemisiifolia, pre-emergence, 240 h, read-out: Plant response rating, Ragweed; for pest or weed control at 125 g/ha: 125 g ai/ha, visual injury after 10 days, 0 to 100 scale, 0 is no effect, 100 is complete control; for pest or weed control at 500 g/ha: 500 g ai/ha, 0 to 100 scale (0 no effect, 100 complete control), 10 days
In short: as §1

[3] = system: goosegrass; test: Test A postemergence; type: in vivo, Eleusine indica; conditions: Eleusine indica, post-emergence, 240 h, postemergence, 10 days, 0 to 100 scale (0 no effect, 100 complete control); for pest or weed control at 125 g/ha: 125 g ai/ha, read-out: Goosegrass plant response rating; for pest or weed control at 500 g/ha: 500 g ai/ha, visual injury, read-out: Plant response rating, Goosegrass
In short: as §1

[4] = system: corn; test: Test A preemergence; type: in vivo, Zea mays; conditions: Zea mays, pre-emergence, 240 h; for Corn plant response rating (crop injury, 0 = no effect, 100 = complete kill) at 125 g/ha: 125 g ai/ha, visual injury after 10 days, 0 to 100 scale, 0 is no effect, 100 is complete control; for Corn plant response rating (crop injury, 0 = no effect, 100 = complete kill) at 500 g/ha: 500 g ai/ha, 0 to 100 scale (0 no effect, 100 complete control), 10 days
In short: as §1

[5] = system: soybean; test: Test A preemergence; type: in vivo, Glycine max; conditions: Glycine max, pre-emergence, 240 h, read-out: Plant response rating, Soybean; for plant injury at 125 g/ha: 125 g ai/ha, visual injury after 10 days, 0 to 100 scale, 0 is no effect, 100 is complete control; for plant injury at 500 g/ha: 500 g ai/ha, 0 to 100 scale (0 no effect, 100 complete control), 10 days
In short: as §1

[6] = system: ragweed; test: Test A postemergence; type: in vivo, Ambrosia artemisiifolia; conditions: Ambrosia artemisiifolia, post-emergence, 240 h, postemergence, 10 days, 0 to 100 scale (0 no effect, 100 complete control); for pest or weed control at 125 g/ha: 125 g ai/ha, read-out: Ragweed plant response rating; for pest or weed control at 500 g/ha: 500 g ai/ha, visual injury, read-out: Plant response rating, Ragweed
In short: as §1

[7] = system: oat, wild; test: Test A postemergence; type: in vivo, Avena fatua; conditions: Avena fatua, post-emergence, 240 h, postemergence, 10 days, 0 to 100 scale (0 no effect, 100 complete control); for pest or weed control at 125 g/ha: 125 g ai/ha, read-out: Oat, Wild plant response rating; for pest or weed control at 500 g/ha: 500 g ai/ha, visual injury, read-out: Plant response rating, Oat, Wild
In short: as §1

[8] = system: sedge, umbrella; test: Test B flooded paddy test; type: in vivo, Cyperus difformis; conditions: Cyperus difformis, 312 h; 250 g ai/ha, Flood, 13 days, 0 to 100 scale (0 no effect, 100 complete control); read-out: Plant response rating, Sedge, Umbrella
In short: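 Flooded to 3 cm at treatment time, 2-leaf plants got the test compound applied straight into the paddy water. They then stayed under constant flood in a greenhouse for 13 days. Ratings used a 0 to 100 visual scale.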

[9] = system: soybean; test: Test A postemergence; type: in vivo, Glycine max; conditions: Glycine max, post-emergence, 240 h, postemergence, 10 days, 0 to 100 scale (0 no effect, 100 complete control); for plant injury at 125 g/ha: 125 g ai/ha, read-out: Soybean plant response rating; for plant injury at 500 g/ha: 500 g ai/ha, visual injury, read-out: Plant response rating, Soybean
In short: as §1

[10] = system: wheat; test: Test A postemergence; type: in vivo, Triticum aestivum; conditions: Triticum aestivum, post-emergence, 240 h, postemergence, 10 days, 0 to 100 scale (0 no effect, 100 complete control); for plant injury at 125 g/ha: 125 g ai/ha, read-out: Wheat plant response rating; for plant injury at 500 g/ha: 500 g ai/ha, visual injury, read-out: Plant response rating, Wheat
In short: as §1

[11] = system: wheat; test: Test A preemergence; type: in vivo, Triticum aestivum; conditions: Triticum aestivum, pre-emergence, 240 h, read-out: Plant response rating, Wheat; for plant injury at 125 g/ha: 125 g ai/ha, visual injury after 10 days, 0 to 100 scale, 0 is no effect, 100 is complete control; for plant injury at 500 g/ha: 500 g ai/ha, 0 to 100 scale (0 no effect, 100 complete control), 10 days
In short: as §1

[12] = system: ryegrass, Italian; test: Test A postemergence; type: in vivo, Lolium multiflorum; conditions: Lolium multiflorum, post-emergence, 240 h, postemergence, 10 days, 0 to 100 scale (0 no effect, 100 complete control); for pest or weed control at 125 g/ha: 125 g ai/ha, read-out: Ryegrass, Italian plant response rating; for pest or weed control at 500 g/ha: 500 g ai/ha, visual injury, read-out: Plant response rating, Ryegrass, Italian
In short: as §1

[13] = system: foxtail, giant; test: Test A postemergence; type: in vivo, Setaria faberi; conditions: Setaria faberi, post-emergence, 240 h, postemergence, 10 days, 0 to 100 scale (0 no effect, 100 complete control); for pest or weed control at 125 g/ha: 125 g ai/ha, read-out: Foxtail, Giant plant response rating; for pest or weed control at 500 g/ha: 500 g ai/ha, visual injury, read-out: Plant response rating, Foxtail, Giant
In short: as §1

Compound `COc1ccc(-n2cnc(C(C)C)n2)cc1C(=O)N1C[C@H](C)Oc2c(Cl)cccc21` [Compound 84, [(2S)-8-chloro-2-methyl-2,3-dihydro-1,4-benzoxazin-4-yl]-[5-(3-isopropyl-1,2,4-triazol-1-yl)-2-methoxy-phenyl]methanone] has a pest or weed control at 125 g/ha [1] of 100%, a pest or weed control at 500 g/ha [1] of 100% and a pest or weed control at 125 g/ha [2] of 70%. The pest or weed control at 500 g/ha [2] was 100%, the pest or weed control at 125 g/ha [3] was 100% and the pest or weed control at 500 g/ha [3] was 100%. For the same compound, the Corn plant response rating (crop injury, 0 = no effect, 100 = complete kill) at 125 g/ha [4] was 20%, the Corn plant response rating (crop injury, 0 = no effect, 100 = complete kill) at 500 g/ha [4] was 20% and the plant injury at 125 g/ha [5] was 90%. For the same compound, the plant injury at 500 g/ha [5] was 100%, the pest or weed control at 125 g/ha [6] was 100% and the pest or weed control at 500 g/ha [6] was 100%. It also gave a pest or weed control at 125 g/ha [7] of 90%, a pest or weed control at 500 g/ha [7] of 90% and a pest or weed control at 250 g/ha [8] of 100%. For the same compound, the plant injury at 125 g/ha [9] was 100%, the plant injury at 500 g/ha [9] was 100% and the plant injury at 125 g/ha [10] was 40%. It also gave a plant injury at 500 g/ha [10] of 50%, a plant injury at 125 g/ha [11] of 60% and a plant injury at 500 g/ha [11] of 90%. The pest or weed control at 125 g/ha [12] was 100%, the pest or weed control at 500 g/ha [12] was 100% and the pest or weed control at 125 g/ha [13] was 80%. The pest or weed control at 500 g/ha [13] was 100%.
Compound `Cc1cccc2c1O[C@@H](C)CN2C(=O)c1cccc(-n2cnc(C3CCCC3)n2)c1` [Compound 80, [3-(3-Cyclopentyl-1H-1,2,4-triazol-1-yl)phenyl][(2S)-2,3-dihydro-2,8-dimethyl-4H-1,4-benzoxazin-4-yl]methanone] has a pest or weed control at 125 g/ha [1] of 10%, a pest or weed control at 500 g/ha [1] of 80% and a pest or weed control at 125 g/ha [2] of 0%. The pest or weed control at 500 g/ha [2] was 0%, the pest or weed control at 125 g/ha [3] was 10% and the pest or weed control at 500 g/ha [3] was 30%. It also gave a Corn plant response rating (crop injury, 0 = no effect, 100 = complete kill) at 125 g/ha [4] of 0%, a Corn plant response rating (crop injury, 0 = no effect, 100 = complete kill) at 500 g/ha [4] of 20% and a plant injury at 125 g/ha [5] of 0%. The plant injury at 500 g/ha [5] was 0%, the pest or weed control at 125 g/ha [6] was 40% and the pest or weed control at 500 g/ha [6] was 60%. For the same compound, the pest or weed control at 125 g/ha [7] was 0%, the pest or weed control at 500 g/ha [7] was 20% and the pest or weed control at 250 g/ha [8] was 0%. The plant injury at 125 g/ha [9] was 70%, the plant injury at 500 g/ha [9] was 100% and the plant injury at 125 g/ha [10] was 10%. It also gave a plant injury at 500 g/ha [10] of 10%, a plant injury at 125 g/ha [11] of 0% and a plant injury at 500 g/ha [11] of 10%. It also gave a pest or weed control at 125 g/ha [12] of 20%, a pest or weed control at 500 g/ha [12] of 70% and a pest or weed control at 125 g/ha [13] of 10%. For the same compound, the pest or weed control at 500 g/ha [13] was 50%.
`CCc1ncn(-c2ccc(OC)c(C(=O)N3C[C@H](C)Oc4c(Cl)cccc43)c2)n1` [Compound 88, [(2S)-8-Chloro-2,3-dihydro-2-methyl-4H-1,4-benzoxazin-4-yl][5-(3-ethyl-1H-1,2,4-triazol-1-yl)-2-methoxyphenyl]methanone] was tested, and the pest or weed control at 125 g/ha [1] was 100%, the pest or weed control at 500 g/ha [1] was 100% and the pest or weed control at 125 g/ha [2] was 60%. It also gave a pest or weed control at 500 g/ha [2] of 100%, a pest or weed control at 125 g/ha [3] of 100% and a pest or weed control at 500 g/ha [3] of 100%. For the same compound, the Corn plant response rating (crop injury, 0 = no effect, 100 = complete kill) at 125 g/ha [4] was 40%, the Corn plant response rating (crop injury, 0 = no effect, 100 = complete kill) at 500 g/ha [4] was 40% and the plant injury at 125 g/ha [5] was 50%. The plant injury at 500 g/ha [5] was 100%, the pest or weed control at 125 g/ha [6] was 70% and the pest or weed control at 500 g/ha [6] was 100%. For the same compound, the pest or weed control at 125 g/ha [7] was 90%, the pest or weed control at 500 g/ha [7] was 90% and the pest or weed control at 250 g/ha [8] was 100%. The plant injury at 125 g/ha [9] was 100%, the plant injury at 500 g/ha [9] was 100% and the plant injury at 125 g/ha [10] was 40%. It also gave a plant injury at 500 g/ha [10] of 90%, a plant injury at 125 g/ha [11] of 20% and a plant injury at 500 g/ha [11] of 40%. For the same compound, the pest or weed control at 125 g/ha [12] was 80%, the pest or weed control at 500 g/ha [12] was 100% and the pest or weed control at 125 g/ha [13] was 90%. The pest or weed control at 500 g/ha [13] was 90%.
